Experimental data from patent US20080008669A1, “Photostable sunscreen compositions comprising cinnamate ester UV-B filters and s-triazine compounds” (L'OREAL, priority 2006, published 2008).

Assay: Measurement of photostability of the cinnamate UV-B filter in emulsion formulas on PMMA plates under SUN TEST xenon lamp
Format: physicochemical
Settings: Formulas 9-11 (1-4% of Example 1) compared with control Formula 8

## CCCCOC(=O)c1ccc(Nc2nc(Nc3ccc(C=C(C(=O)OCC(C)(C)C)C(=O)OCC(C)(C)C)cc3)nc(Nc3ccc(C=C(C(=O)OCC(C)(C)C)C(=O)OCC(C)(C)C)cc3)n2)cc1 [Example 1, 2,4-bis-(dineopentyl 4′-aminobenzalmalonate)-6-(butyl 4″-aminobenzoate)-s-triazine]
  Photostability of the cinnamate ester in the presence of the compound: improvement in the photostability of the cinnamate ester is clearly seen
